# Test results reported in patent US12060388B2, “Cell-penetrating peptides and methods of use thereof” (priority 2018, dated 2024).
# No end group written: not given here. *: point of attachment. Biotin = O=C1N[C@H]2[C@H](CS[C@H]2CCCCC(=O)*)N1
# Legend:
# HPV16 PsV = HPV16 PsV infectivity in HeLa S3 cells with chemical inhibitors; type: cell-based; details: MOI of one, 48 h.p.i.
# Procedure: 5×10^4 HeLa S3 or HaCaT cells in 12-well plates were incubated with PsVs at MOI of approximately one. The number of packaged reporter plasmids required to achieve this MOI as assessed by flow cytometry for reporter gene expression from wild-type PsV was quantified by qPCR, and an equivalent number of genomes in mutant PsV were used to infect cells. Approximately five-fold more virus was used to attain this MOI in HaCaT cells. Cells were analyzed by flow cytometry on a Stratedigm-12 flow cytometer to determine the fraction of cells displaying HcRed fluorescence 48 h.p.i. To measure dependence on retromer, 1×10^5 HeLa S3 cells in a 12-well plate were transfected […] to infection with 10 pmol siRNAs targeting Vps29 (Dharmacon, Lafayette, CO; #D-009764-03) or Vps35 (Dharmacon, #D-010894-01) by using RNAiMAX (Thermo Fisher, Waltham, MA, #13778100) according to manufacturer's protocol. Cells transfected with a 10 pmol RISC-free siRNA were used as a control. Forty-eight h.p.i., infectivity was measured by flow cytometry for reporter gene expression. […] Forty-eight h.p.i., infectivity was measured by flow cytometry for HcRed expression. […] Forty-eight h.p.i., infectivity was measured by flow cytometry for HcRed expression.
# [1] = test system: HPV16 PsV containing GFP11-tagged L2; test: Split GFP assay with aphidicolin, HaCaT/GFP1-10NES cells; type: cell-based; details: 6 μM, MOI of 2000, three h.p.i.
# Procedure: FIG. 12A depicts HeLa S3 cells left untreated or treated with 6 μM aphidicolin. Twenty-four h later, cells were infected at MOI of one with wild-type HPV16 PsV or PsV containing L2-GFP11-CPP or L2-CPP-GFP11. Forty-eight h.p.i., the fraction of infected cells was determined by flow cytometry for HcRed fluorescence and normalized to untreated cells infected with wild-type HPV16 PsV. FIG. 12B depicts HaCaT/GFP1-10NES cells infected at an MOI of 2000 with wild-type HPV16 PsV or PsV containing GFP11-tagged L2 in the presence of absence of 6 μM aphidicolin. Three h.p.i., cells were examined by confocal microscopy for reconstituted GFP fluorescence. Fluorescence in individual cells (˜250 for each condition) is plotted from two independent experiments. […]
# Generation of stable cell lines. […] Single cells were then plated in a 96-well plate, and monoclonal cell lines were isolated and tested by infection of HPV16-CPP-GFP11 PsV at ˜2000 MOI and monitoring fluorescence. […] Images were acquired with a Leica SP5 inverted fluorescence microscope to identify cell lines expressing cytoplasmic GFP1-10NES. […] Twenty-four hours later, live cells were examined by fluorescence microscopy. […] Twenty-four h later, live cells were examined by fluorescence microscopy. As expected, fluorescence with GFP11-CD8-CIMPR was reconstituted only when the GFP1-10 segment was luminal (FIG. 8F). […]
# [2] = test system: wild-type HPV16 pseudovirus; test: Peptide inhibition experiment with L2-C, HeLa cells; type: cell-based; details: 4 μg peptide, infectivity 48 hours later
# Procedure: HeLa cells were treated at 37° C. with 4 μg L2-C, a peptide containing the HPV16 L2 retromer binding site and CPP or mock treated. B represents N terminal biotinylation and Am represents C-terminal amidation. Two hours later, the cells were infected for two hours at 37° C. with wild-type HPV16 pseudovirus. Cells were washed and medium was replenished with medium containing the peptide for 24 hours. Infectivity was tested 48 hours later by using flow cytometry to measure fluorescence of HcRed expressed from a plasmid encapsidated in the pseudovirus particle. Similar results were obtained in two independent experiments.
# HeLa cells were left untreated or treated at 37° C. with 4 μg L2-C, a peptide containing the HPV16 L2 retromer binding site and CPP. The sequence of L2-C is as follows: B-[…]-Am, (SEQ ID NO: 533), where B represents N-terminal biotinylation and Am represents C-terminal amidation. Two hours later, the cells were infected for two hours at 37° C. with wild-type HPV16 pseudovirus. Cells were washed and medium was replenished with medium containing the peptide for 24 hours. Infectivity was tested 48 hours later by using flow cytometry to measure fluorescence of HcRed expressed from a reporter plasmid encapsidated in the pseudovirus particle, and normalized to infectivity of cells infected in the absence of peptide. Similar results were obtained in two independent experiments.
# HaCaT cells = test: Modulation of CPP action by flanking sequences, GFP fusion proteins on HaCaT cells; type: cell-based, human
# Procedure: Fusion proteins with various segments of the C-terminus of HPV16 or HPV5 L2 were added to HaCaT cells. The sequences used are as follows:
# In some cases, various concentrations of fusion proteins were added to assess efficacy. In other cases, the pH of the culture medium was physiological pH 7 or adjusted to acidic pH 4 prior to peptide addition, or the cells were incubated with peptide at physiological temperature of 37° C. or at 30° C. Activity was assessed by confocal microscopy for intracellular fluorescence. In some experiments, cell surface fluorescence was extinguished by treatment with the membrane-impermeable fluorescence quencher, trypan blue.
# retromer (Vps35) = target: T1, retromer (Vps35) (Homo sapiens, UniProt O75436+Q96QK1); test: Biotinylated peptide pull-down from HeLa S3 lysate, blot for Vps35; type: binding; details: streptavidin pull-down
# T1 construct: endogenous in cells; host or cells: HeLa S3 lysate (RIPA-MOPS buffer)
# Procedure: For peptide pull-down experiments, N-terminal biotinylated L2 peptides (sequences shown in FIG. 2A) were purchased from ABClonal Science (Woburn, MA) at >95% purity. L2 wild-type was dissolved initially in 30% acetic acid and DMSO (˜70 μl each), and then dissolved in sterile deionized water with 0.01% sodium azide. L2-6A, L2-3R and L2-DM were initially solubilized in a small amount of DMSO (˜70-80 μl) and then dissolved in sterile deionized water with 0.01% sodium azide. Peptide stocks (5 mg/ml) were aliquoted and stored at −20° C. HeLa S3 cells plated in six-well plates were lysed at ˜80% confluency with 500 μl RIPA-MOPS buffer (20 mM morpholinepropanesulfonic acid [pH 7.0], 150 mM NaCl, 1% Nonidet P-40, 1 mM EDTA, 1% deoxycholic acid, 0.1% sodium dodecyl sulfate [SDS]) supplemented with protease inhibitors (1×HALT protease and phosphatase inhibitor cocktail (Thermo Scientific, Waltham, MA; #78443)). The lysate was centrifuged at 14,000 rpm for 20 min, and the supernatant was incubated with 10 μg of a biotinylated peptide for two h at 4° C. Fifty μl of streptavidin agarose beads slurry (Pierce, Rockford, IL; #20349) was added, and the mixture was gently rocked for 45 min at 4° C. […] Samples were analyzed by SDS-PAGE and immunoblotting with antibody recognizing Vps35 (Abcam, Cambridge, MA; ab57632).
compound,measurement,setting,value
C[C@H](NC(=O)Cc1cc(F)cc(F)c1)C(=O)N[C@H]1N=C(c2ccccc2)c2ccccc2N(C)C1=O [XXI],inhibition of wild-type and L2-Tat PsV infection,"HPV16 PsV; 250 nM, pretreated one h",near-complete inhibition
"C[C@@]1(CO)[C@H](O)CC[C@@]2(C)[C@H]1CC[C@H]1C[C@@H]3C[C@@]12CC[C@]3(O)CO [aphidocolin, aphidicolin]",effect on HPV infection,"HPV16 PsV; 6 μM, pretreated 24 h",inhibited infection
same,reconstituted GFP signal,[1],did not decrease the reconstituted GFP signal
B-SPQYTIIADAGDFYLHPSYYMLRKRRKR-Am [L2-C],inhibition of infection by HPV16 PsV,[2],dramatic inhibition of infection
His6-GFP-linker-IPVVIIHPHDSTGDFYLHPSLHRRKRKRKYL [GFP fusion protein with HPV5 C-terminus],"cell binding, temperature dependence","HaCaT cells; three hours, 30° C. or 37° C.",better at 30 °C than at 37 °C
His6-GFP-linker-PQYTIIADAGDFYLHPSYYMLRKRRKR [GFP-21P-CPP],cell binding and entry at pH 7,HaCaT cells; three hours at 37° C.,binds
His6-GFP-linker-PQYTIIADAGDFYLHPSYYMLRKRRKRLPYFFSDVSLAA [GFP-HPV16 L2],cell binding and entry at pH 4,"HaCaT cells; three hours at 37° C., pH 4",well
same,cell binding and entry at pH 7,HaCaT cells; three hours at 37° C.,poorly
His6-GFP-linker-RKRRKR,cell binding and entry at pH 7,HaCaT cells; three hours at 37° C.,"active in cell binding and internalization, but is not as efficient"
L2-3R: N-terminal biotinylated C-terminal L2 peptide with the 3R mutation (Biotin-SPQYTIIADAGDFYLHPSYYMLRRR),retromer binding of L2 peptide in vitro,retromer (Vps35),did not affect retromer binding
